Measurements reported in paper PMC2964429 (Biochemistry, 2010).

Columns and labels:
[1] = biological target: HpAgD (agmatine deiminase from Helicobacter pylori); details: read-out: IC50 HpAgD; previously reported; cited from earlier work
[2] = biological target: PgAgD (agmatine deiminase from P. gingivalis) (Porphyromonas gingivalis, UniProt Q7MXM8); assay: IC50 determination, agmatine deiminase discontinuous ureido; format: biochemical
[3] = biological target: SmAgD (agmatine deiminase from S. mutans) (Streptococcus mutans serotype c, UniProt Q8DW17); assay: as above; format: biochemical
Sequence of SmAgD (agmatine deiminase from S. mutans) (Q8DW17 whole entry): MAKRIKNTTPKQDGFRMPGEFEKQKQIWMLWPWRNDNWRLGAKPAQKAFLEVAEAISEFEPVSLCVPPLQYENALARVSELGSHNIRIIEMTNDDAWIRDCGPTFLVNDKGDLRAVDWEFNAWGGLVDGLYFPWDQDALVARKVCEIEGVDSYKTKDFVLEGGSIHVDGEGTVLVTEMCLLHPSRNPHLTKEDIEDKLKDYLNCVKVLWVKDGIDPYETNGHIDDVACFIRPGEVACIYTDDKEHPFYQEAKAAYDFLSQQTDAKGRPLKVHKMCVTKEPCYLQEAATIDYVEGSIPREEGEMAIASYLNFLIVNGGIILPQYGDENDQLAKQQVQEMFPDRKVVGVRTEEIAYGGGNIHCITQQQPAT

Cys324 = assay: chemical modification; details: 37 °C, 50 mM HEPES, free enzyme (kinact/KI)

Row | Compound | IC50 [1] [µM] | IC50 [2] [µM] | IC50 [3] [µM] | pKa (Cys324; 2-chloroacetamidine 0-60 mM) | pKa (Cys324; iodoacetamide 0-20 mM)
1 | N=C(CCl)NCCCCN [ABCA, N-(4-aminobutyl)-2-chloro-ethanimidamide] | 0.87 ± 0.03 | 15 ± 3 | – | – | –
2 | N=C(CF)NCCCCN [ABFA, N-(4-aminobutyl)-2-fluoro-ethanimidamide] | 6.8 ± 0.26 | 91 ± 25 | 0.27 ± 0.1 | – | –
3 | Agmatine deiminase (HpAgD) (Helicobacter pylori) | – | – | – | 9.8 ± 0.1 | 9.2 ± 0.3
